Literature values, collected in patent US3959464A, “Microencapsulated methyl and ethyl parathion insecticide in aqueous carrier” (Pennwalt Corporation, priority 1971, dated 1976).

Experiments:
[1] = system: insects; conditions: ordinary methods of application
[2] = system: food crops; conditions: unmodified, unencapsulated
[3] = for effect of moisture (hydrolysis): contacted by moisture; for degradation in the field: hydrolysis and oxidation reactions

Structure (SMILES)	period of pesticidal effectiveness in the field [1]	phytotoxicity [2]	effect of moisture (hydrolysis) [3]	degradation in the field [3]
COP(=S)(OC)Oc1ccc([N+](=O)[O-])cc1 [methyl parathion, O,O-dimethyl-O-p-nitrophenol phosphorothioate]	only several days	chemical phytotoxicity to various food crops	rendered ineffectual by hydrolysis when contacted by moisture	rapid degradation in the field
CCOP(=S)(OCC)Oc1ccc([N+](=O)[O-])cc1 [ethyl parathion, O,O-diethyl-O-p-nitrophenol phosphorothioate]	only several days	chemical phytotoxicity to various food crops	rendered ineffectual by hydrolysis when contacted by moisture	rapid degradation in the field
